In patent US12139520B2 (priority 2020, dated 2024):
Read-outs that look alike come from different tables or passages of the source. Bridge positions count the residues as written; N and C are the ends. Square brackets hold non-standard residues; d marks the D form. Peptide text beside a SMILES is read from it. Hyp = O=C(O)[C@@H]1C[C@@H](O)CN1

Tests used:
hAM1 receptor = hAM1 receptor (Homo sapiens, UniProt O60895+Q16602); assay: cAMP assay for in vitro receptor activation, hAM1-R; format: cell-based
Summary of the method: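 Receptor activation, read as cAMP, was assessed in thawed cells of a monoclonal hAM1-overexpressing stable line, plated at 8000 cells/well in DPBS supplemented with 0.05% casein and 0.5 mM IBMX.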

[1] = Physical stability of peptide analogues (Thioflavin T fibrillation); format: physicochemical; settings: maximum ThT signal normalized between hAMY maximum and buffer background; 40° C., shaking, four days; pH 7 per table title
Summary of the method: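 Maximum ThT emission at 480 nm, after LOESS smoothing, is given as percent of the span from buffer background to hAMY. Conditions: 50 mM buffer at pH 4 or 7, 4 μM dye, 40 °C, repeated shaking, readings every 10 min for four days.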

[2] = cAMP assay, hAM1 receptor, read-out: hAM1R EC50

hAM1 receptor, sequence (Q16602 23-461): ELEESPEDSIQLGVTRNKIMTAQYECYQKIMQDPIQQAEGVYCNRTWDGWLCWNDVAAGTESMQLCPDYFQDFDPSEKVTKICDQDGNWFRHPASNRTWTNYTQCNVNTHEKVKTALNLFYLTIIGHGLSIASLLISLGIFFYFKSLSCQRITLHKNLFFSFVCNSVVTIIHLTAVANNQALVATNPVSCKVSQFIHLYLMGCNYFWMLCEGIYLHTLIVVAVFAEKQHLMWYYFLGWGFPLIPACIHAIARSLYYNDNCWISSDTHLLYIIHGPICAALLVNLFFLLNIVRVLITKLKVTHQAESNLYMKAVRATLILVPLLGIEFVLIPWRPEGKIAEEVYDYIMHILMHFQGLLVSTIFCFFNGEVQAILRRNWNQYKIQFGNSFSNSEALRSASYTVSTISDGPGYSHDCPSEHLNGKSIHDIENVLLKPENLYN
hAM1 receptor, sequence (O60895 43-175 partner): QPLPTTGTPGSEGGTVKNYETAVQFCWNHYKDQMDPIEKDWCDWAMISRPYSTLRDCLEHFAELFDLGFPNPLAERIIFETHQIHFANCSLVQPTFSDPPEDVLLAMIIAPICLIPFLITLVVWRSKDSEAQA

| Compound | EC50 (hAM1 receptor; [2]) | Max ThT signal (%) [1] | EC50 (hAM1 receptor) |
| --- | --- | --- | --- |
| CC[C@H](C)[C@H](NC(=O)[C@H](CCC(N)=O)NC(=O)[C@H](Cc1c[nH]cn1)NC(=O)[C@H](C)NC(=O)[C@H](CC(C)C)NC(=O)[C@H](Cc1c[nH]c2ccccc12)NC(=O)[C@H](CCC(N)=O)NC(=O)[C@@H](NC(=O)[C@@H](NC(=O)[C@@H]1CSSC[C@H](NC(=O)CN)C(=O)N[C@@H](CCCNC(=N)N)C(=O)N[C@@H]([C@@H](C)O)C(=O)NCC(=O)N[C@@H]([C@@H](C)O)C(=O)N1)[C@@H](C)O)C(C)C)C(=O)N[C@@H](Cc1ccc(O)cc1)C(=O)N[C@@H](CCC(N)=O)C(=O)N[C@@H](Cc1ccccc1)C(=O)N[C@H](C(=O)N[C@@H](CC(=O)O)C(=O)N[C@@H](CCCCN)C(=O)N[C@@H](CC(=O)O)C(=O)N[C@@H](CCCCN)C(=O)N[C@@H](CC(=O)O)C(=O)N[C@@H](CC(N)=O)C(=O)N[C@H](C(=O)N[C@@H](C)C(=O)N1CCC[C@H]1C(=O)N[C@@H](CCCNC(=N)N)C(=O)N[C@H](C(=O)N[C@@H](CCCCN)C(=O)N[C@H](C(=O)NCC(=O)N1CCC[C@H]1C(=O)N[C@@H](CCC(N)=O)C(=O)NCC(=O)N1C[C@H](O)C[C@H]1C(N)=O)C(C)C)[C@@H](C)O)C(C)C)[C@@H](C)O [compound 349] (H-GCRTGTCTVQWLAHQIYQFTDKDKDNVAPRTKVGPQG[Hyp]-NH2; disulfide 2-7; N-terminus assumed) | > 5 µM | 15.250% |  |
| CC[C@H](C)[C@H](NC(=O)[C@H](CCC(N)=O)NC(=O)[C@H](Cc1c[nH]cn1)NC(=O)[C@H](C)NC(=O)[C@H](CC(C)C)NC(=O)[C@H](CCCNC(=N)N)NC(=O)[C@H](CCC(N)=O)NC(=O)[C@@H](NC(=O)[C@@H](NC(=O)[C@@H]1CSSC[C@H](NC(=O)CN)C(=O)N[C@@H](CCCNC(=N)N)C(=O)N[C@@H]([C@@H](C)O)C(=O)NCC(=O)N[C@@H]([C@@H](C)O)C(=O)N1)[C@@H](C)O)C(C)C)C(=O)N[C@@H](Cc1c[nH]cn1)C(=O)N[C@@H](CCC(N)=O)C(=O)N[C@@H](Cc1ccccc1)C(=O)N[C@H](C(=O)N[C@@H](CC(=O)O)C(=O)N[C@@H](CCCCN)C(=O)N[C@@H](CC(=O)O)C(=O)N[C@@H](CCCCN)C(=O)N[C@@H](CC(=O)O)C(=O)N[C@@H](CC(N)=O)C(=O)N[C@H](C(=O)N[C@@H](C)C(=O)N1CCC[C@H]1C(=O)N[C@@H](CCCNC(=N)N)C(=O)N[C@@H](CO)C(=O)N[C@@H](CCCCN)C(=O)N[C@H](C(=O)N[C@@H](CO)C(=O)N1CCC[C@H]1C(=O)N[C@@H](CCC(N)=O)C(=O)N[C@H](C(=O)N1C[C@H](O)C[C@H]1C(N)=O)[C@@H](C)O)[C@@H](C)CC)C(C)C)[C@@H](C)O [compound 228] (H-GCRTGTCTVQRLAHQIHQFTDKDKDNVAPRSKISPQT[Hyp]-NH2; disulfide 2-7; N-terminus assumed) | > 5 µM | 19.600% |  |
| CC[C@H](C)[C@H](NC(=O)[C@H](CCC(N)=O)NC(=O)[C@H](Cc1c[nH]cn1)NC(=O)[C@H](C)NC(=O)[C@H](CC(C)C)NC(=O)[C@H](CCCNC(=N)N)NC(=O)[C@H](CCC(N)=O)NC(=O)[C@@H](NC(=O)[C@@H](NC(=O)[C@@H]1CSSC[C@H](NC(=O)CN)C(=O)N[C@@H](CCCNC(=N)N)C(=O)N[C@@H](Cc2ccccc2)C(=O)NCC(=O)N[C@@H]([C@@H](C)O)C(=O)N1)[C@@H](C)O)C(C)C)C(=O)N[C@@H](Cc1ccc(O)cc1)C(=O)N[C@@H](CCC(N)=O)C(=O)N[C@@H](Cc1ccccc1)C(=O)N[C@H](C(=O)N[C@@H](CC(=O)O)C(=O)N[C@@H](CCCCN)C(=O)N[C@@H](CC(=O)O)C(=O)N[C@@H](CCCCN)C(=O)N[C@@H](CC(=O)O)C(=O)N[C@@H](CC(N)=O)C(=O)N[C@H](C(=O)N[C@@H](C)C(=O)N1CCC[C@H]1C(=O)N[C@@H](CO)C(=O)N[C@@H](CO)C(=O)N[C@@H](CCCCN)C(=O)N[C@H](C(=O)N[C@@H](CO)C(=O)N1CCC[C@H]1C(=O)N[C@@H](CCC(N)=O)C(=O)N[C@H](C(=O)N1C[C@H](O)C[C@H]1C(N)=O)[C@@H](C)O)[C@@H](C)CC)C(C)C)[C@@H](C)O [compound 240] (H-GCRFGTCTVQRLAHQIYQFTDKDKDNVAPSSKISPQT[Hyp]-NH2; disulfide 2-7; N-terminus assumed) | > 5 µM | 3.700% |  |
| CC[C@H](C)[C@H](NC(=O)[C@H](CCC(N)=O)NC(=O)[C@H](Cc1c[nH]cn1)NC(=O)[C@H](C)NC(=O)[C@H](CC(C)C)NC(=O)[C@H](CCCNC(=N)N)NC(=O)[C@H](CCC(N)=O)NC(=O)[C@@H](NC(=O)[C@@H](NC(=O)[C@@H]1CSSC[C@H](NC(=O)CN)C(=O)N[C@@H](CCCNC(=N)N)C(=O)N[C@@H]([C@@H](C)O)C(=O)NCC(=O)N[C@@H]([C@@H](C)O)C(=O)N1)[C@@H](C)O)C(C)C)C(=O)N[C@@H](Cc1ccc(O)cc1)C(=O)N[C@@H](CCC(N)=O)C(=O)N[C@@H](Cc1ccccc1)C(=O)N[C@H](C(=O)N[C@@H](CC(=O)O)C(=O)N[C@@H](CCCCN)C(=O)N[C@@H](Cc1ccccc1)C(=O)N[C@@H](CCCCN)C(=O)N[C@@H](CC(=O)O)C(=O)N[C@@H](CC(N)=O)C(=O)N[C@H](C(=O)N[C@@H](C)C(=O)N1CCC[C@H]1C(=O)N[C@@H](CCCNC(=N)N)C(=O)N[C@@H](CO)C(=O)N[C@@H](CCCCN)C(=O)N[C@H](C(=O)N[C@@H](CO)C(=O)N1CCC[C@H]1C(=O)N[C@@H](CCC(N)=O)C(=O)N1CCC[C@H]1C(=O)N1C[C@H](O)C[C@H]1C(N)=O)[C@@H](C)CC)C(C)C)[C@@H](C)O [compound 203] (H-GCRTGTCTVQRLAHQIYQFTDKFKDNVAPRSKISPQP[Hyp]-NH2; disulfide 2-7; N-terminus assumed) |  | 1.200% | > 5 µM |

Second part, led by results:

| EC50 (hAM1 receptor; [2]) | Max ThT signal (%) [1] | Compound | EC50 (hAM1 receptor) |
| --- | --- | --- | --- |
| > 5 µM | 1.250% | CC[C@H](C)[C@H](NC(=O)[C@H](CC(N)=O)NC(=O)[C@@H](NC(=O)[C@H](CCCNC(=N)N)NC(=O)[C@@H]1CCCN1C(=O)[C@H](C)NC(=O)[C@@H](NC(=O)[C@H](CC(N)=O)NC(=O)[C@H](CC(=O)O)NC(=O)[C@H](CCCCN)NC(=O)[C@H](CC(=O)O)NC(=O)[C@H](CCCCN)NC(=O)[C@H](CC(=O)O)NC(=O)[C@@H](NC(=O)[C@H](Cc1ccccc1)NC(=O)[C@H](CCC(N)=O)NC(=O)[C@H](Cc1ccc(O)cc1)NC(=O)[C@@H](NC(=O)[C@H](CCC(N)=O)NC(=O)[C@H](Cc1c[nH]cn1)NC(=O)[C@H](C)NC(=O)[C@H](CC(C)C)NC(=O)[C@H](Cc1c[nH]c2ccccc12)NC(=O)[C@H](CCC(N)=O)NC(=O)[C@@H](NC(=O)[C@@H](NC(=O)[C@@H]1CSSC[C@H](NC(=O)CN)C(=O)N[C@@H](CCCNC(=N)N)C(=O)N[C@@H]([C@@H](C)O)C(=O)NCC(=O)N[C@@H]([C@@H](C)O)C(=O)N1)[C@@H](C)O)C(C)C)[C@@H](C)CC)[C@@H](C)O)C(C)C)[C@@H](C)O)C(=O)NCC(=O)N1CCC[C@H]1C(=O)N[C@@H](CCC(N)=O)C(=O)NCC(=O)N[C@@H](Cc1ccc(O)cc1)C(N)=O [compound 356] (H-GCRTGTCTVQWLAHQIYQFTDKDKDNVAPRTNIGPQGY-NH2; disulfide 2-7) |  |
| > 5 µM | 6.450% | CC(C)C[C@H](NC(=O)[C@H](Cc1c[nH]c2ccccc12)NC(=O)[C@H](CCC(N)=O)NC(=O)[C@@H](NC(=O)[C@@H](NC(=O)[C@@H]1CSSC[C@H](NC(=O)CN)C(=O)N[C@@H](CCCNC(=N)N)C(=O)N[C@@H](Cc2ccccc2)C(=O)NCC(=O)N[C@@H]([C@@H](C)O)C(=O)N1)[C@@H](C)O)C(C)C)C(=O)N[C@@H](C)C(=O)N[C@@H](CC(N)=O)C(=O)N[C@@H](Cc1ccccc1)C(=O)N[C@@H](CC(C)C)C(=O)N[C@@H](Cc1ccc(O)cc1)C(=O)N[C@@H](CCC(N)=O)C(=O)N[C@@H](Cc1ccccc1)C(=O)N[C@H](C(=O)N[C@@H](CC(=O)O)C(=O)N[C@@H](CCCCN)C(=O)N[C@@H](CC(=O)O)C(=O)N[C@@H](CCCCN)C(=O)N[C@@H](CC(=O)O)C(=O)N[C@@H](CC(N)=O)C(=O)N[C@H](C(=O)N[C@@H](C)C(=O)N1CCC[C@H]1C(=O)N[C@@H](CCCNC(=N)N)C(=O)N[C@H](C(=O)N[C@@H](CC(N)=O)C(=O)N[C@H](C(=O)NCC(=O)N1CCC[C@H]1C(=O)N[C@@H](CCC(N)=O)C(=O)NCC(=O)N[C@@H](Cc1ccc(O)cc1)C(N)=O)C(C)C)[C@@H](C)O)C(C)C)[C@@H](C)O [compound 311] (H-GCRFGTCTVQWLANFLYQFTDKDKDNVAPRTNVGPQGY-NH2; disulfide 2-7; N-terminus assumed) |  |
| > 5 µM | 26.350% | CC[C@H](C)[C@H](NC(=O)[C@H](CCC(N)=O)NC(=O)[C@H](Cc1c[nH]cn1)NC(=O)[C@H](C)NC(=O)[C@H](CC(C)C)NC(=O)[C@H](Cc1c[nH]c2ccccc12)NC(=O)[C@H](CCC(N)=O)NC(=O)[C@@H](NC(=O)[C@@H](NC(=O)[C@@H]1CSSC[C@H](NC(=O)CN)C(=O)N[C@@H](CCCNC(=N)N)C(=O)N[C@@H]([C@@H](C)O)C(=O)NCC(=O)N[C@@H]([C@@H](C)O)C(=O)N1)[C@@H](C)O)C(C)C)C(=O)N[C@@H](Cc1ccc(O)cc1)C(=O)N[C@@H](CCC(N)=O)C(=O)N[C@@H](Cc1ccccc1)C(=O)N[C@H](C(=O)N[C@@H](CC(=O)O)C(=O)N[C@@H](CCCCN)C(=O)N[C@@H](CC(=O)O)C(=O)N[C@@H](CCCCN)C(=O)N[C@@H](CC(=O)O)C(=O)N[C@@H](CC(N)=O)C(=O)N[C@H](C(=O)N[C@@H](C)C(=O)N1CCC[C@H]1C(=O)N[C@@H](CCCNC(=N)N)C(=O)N[C@@H](CO)C(=O)N[C@@H](CC(N)=O)C(=O)N[C@H](C(=O)N[C@@H](CO)C(=O)N1CCC[C@H]1C(=O)N[C@@H](CC(N)=O)C(=O)NCC(=O)N1C[C@H](O)C[C@H]1C(N)=O)C(C)C)C(C)C)[C@@H](C)O [compound 360] (H-GCRTGTCTVQWLAHQIYQFTDKDKDNVAPRSNVSPNG[Hyp]-NH2; disulfide 2-7) |  |
